“And” between values parts separate entries of the source, which are not always exact repeats. Equal entries are not always repeated.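 Results reflect a 48-hour exposure of cells in 96-well plates to compound at five concentrations. At the GI50, growth is halved. At the TGI there is no net growth.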 Where a SMILES comes first, the peptide text is derived from it. The star is where a group is joined. Boc = CC(C)(C)OC(=O)*

One experiment deals with SK-MEL-2 melanoma. Put plainly: NCI tumour cell line growth inhibition, 48 h.
Molecule `CC(C)Sc1nc(C#N)cc2c1CCCC2` had a TGI of 63.2 µM.
`CCOP(=O)(OCC)/C(C#N)=C/c1cnc(-c2ccccc2)[nH]1`: the TGI was above 100 µM.
Turning to `CC(=O)OCC1OC(OC(C)(C)CC/C=C(\C)[C@@H]2C/C=C(\C)CC/C=C(\C)CC2)C(O)C(O)C1OC(C)=O` (stereo partly specified), the GI50 was > 64.3 µM and 16.4 µM; the TGI was > 100 µM and 29.9 µM.
With `O=C(CN1c2ccccc2Sc2ccccc21)N1CCNCC1`, the TGI was above 100 µM.
With `CN(C)CCCOC(=O)C(c1ccccc1)C1(O)CCSCC1` (stereo unspecified), the TGI is above 100 µM.
As for `OCC1CCCCCCCCCCC12SCCCS2` (stereo unspecified), the TGI is above 100 µM.
The molecule `COCOC1/C=C/CCCCC2=C(C)C=C(C1)O2` (stereo unspecified) showed a TGI above 100 µM.
As to `C=C(C)C12CC(COC(=O)c3ccccc3)C34OC5(OC1C3C1OC1(CO)C(O)C1(O)C(OC(=O)c3ccccc3)C(C)C(C(C)CCCCCCC5O)C14)O2` (stereo unspecified), the TGI was above 100 µM.
Still for that read-out and setting: the value for `O=C(O)c1cc2c(cc1CC(Cc1ccc3c(c1)CCC3)C(=O)O)CCC2` (stereo unspecified) was above 100 µM; that for `COc1cc(-c2cc(=O)c3cc4c(cc3[nH]2)OCO4)cc(OC)c1O` was above 10 µM; that for `C[C@@]12[C@H]3CC[C@@H]1[C@H](O)C(=O)N2CC3` was above 100 µM.
`COC(=O)CNC(=O)C(Cc1ccccc1)NC(=O)C(CCSC)NC(=O)C(Cc1ccc(O)cc1)NC(=O)OC(C)(C)C` (stereo unspecified) (Boc-YMFG-OMe; configuration not given here) displayed a TGI of 33.1 µM.
On the same count and under the same terms, the value for `O=C1CCC[C@@H]2NC[C@@H](c3ccc4c(c3)OCO4)[C@H]12` was above 25 µM; that for `Cc1ccc([C@@H]2[C@@H](C(=O)c3ccccn3)[C@H](c3ccc(C)cc3)C[C@](O)(c3ccccn3)[C@H]2C(=O)c2ccccn2)cc1` was above 100 µM.
`O=C(Nc1ccc(Br)cc1)c1c(-c2ccccc2)c2ccc(O)cc2oc1=O` gave a TGI above 10 µM.
The same measure, in the same setting: as for `O=C1C(Cl)=C(N2CCN(C3=C(Cl)C(=O)c4ccccc4C3=O)CC2)C(=O)c2ccccc21`, the figure is 3.34 µM; as for `CCOc1cc(NC(C)=O)ccc1C(=O)NNC(=O)c1ccccc1OC(C)=O`, above 100 µM.
Regarding `O=C(O)CN(CCNC(=O)OCC1c2ccccc2-c2ccccc21)CCNC(=O)OCC1c2ccccc2-c2ccccc21`, the TGI was found to be 46.6 µM.

Another experiment has as its system HOP-92 NSCLC. As to the kind of experiment: NCI tumour cell line growth inhibition, 48 h.
Molecule `CC(C)Sc1nc(C#N)cc2c1CCCC2` registered a TGI of 93.5 µM.
As for `CCOP(=O)(OCC)/C(C#N)=C/c1cnc(-c2ccccc2)[nH]1`, the TGI is above 100 µM.
`CC(=O)OCC1OC(OC(C)(C)CC/C=C(\C)[C@@H]2C/C=C(\C)CC/C=C(\C)CC2)C(O)C(O)C1OC(C)=O` (stereo partly specified): the GI50 was > 81.2 µM and 17.5 µM; the TGI is > 100 µM and 35 µM.
`O=C(CN1c2ccccc2Sc2ccccc21)N1CCNCC1` gave a TGI above 100 µM.
The same measure, in the same setting: as for `CN(C)CCCOC(=O)C(c1ccccc1)C1(O)CCSCC1` (stereo unspecified), the figure is above 100 µM; as for `OCC1CCCCCCCCCCC12SCCCS2` (stereo unspecified), above 100 µM; as for `COCOC1/C=C/CCCCC2=C(C)C=C(C1)O2` (stereo unspecified), above 100 µM.
On the same count and under the same terms, the value for `C=C(C)C12CC(COC(=O)c3ccccc3)C34OC5(OC1C3C1OC1(CO)C(O)C1(O)C(OC(=O)c3ccccc3)C(C)C(C(C)CCCCCCC5O)C14)O2` (stereo unspecified) was above 100 µM; that for `O=C(O)c1cc2c(cc1CC(Cc1ccc3c(c1)CCC3)C(=O)O)CCC2` (stereo unspecified) was above 100 µM; that for `COc1cc(-c2cc(=O)c3cc4c(cc3[nH]2)OCO4)cc(OC)c1O` was above 10 µM.
`C[C@@]12[C@H]3CC[C@@H]1[C@H](O)C(=O)N2CC3`: the TGI is above 100 µM.
Consider `COC(=O)CNC(=O)C(Cc1ccccc1)NC(=O)C(CCSC)NC(=O)C(Cc1ccc(O)cc1)NC(=O)OC(C)(C)C` (stereo unspecified) (Boc-YMFG-OMe; configuration not given here), for which the TGI is 74.1 µM.
On the same count and under the same terms, the value for `O=C1CCC[C@@H]2NC[C@@H](c3ccc4c(c3)OCO4)[C@H]12` was above 25 µM.
Take `Cc1ccc([C@@H]2[C@@H](C(=O)c3ccccn3)[C@H](c3ccc(C)cc3)C[C@](O)(c3ccccn3)[C@H]2C(=O)c2ccccn2)cc1`: the TGI was above 100 µM.
Molecule `O=C(Nc1ccc(Br)cc1)c1c(-c2ccccc2)c2ccc(O)cc2oc1=O` had a TGI above 10 µM.
Molecule `O=C1C(Cl)=C(N2CCN(C3=C(Cl)C(=O)c4ccccc4C3=O)CC2)C(=O)c2ccccc21` showed a TGI of 2.4 µM.
Regarding `CCOc1cc(NC(C)=O)ccc1C(=O)NNC(=O)c1ccccc1OC(C)=O`, the TGI was above 100 µM.
`O=C(O)CN(CCNC(=O)OCC1c2ccccc2-c2ccccc21)CCNC(=O)OCC1c2ccccc2-c2ccccc21`: the TGI worked out at 42.7 µM.

A further experiment concerns SK-MEL-5 melanoma. Put plainly: NCI tumour cell line growth inhibition, 48 h.
For the molecule `CC(C)Sc1nc(C#N)cc2c1CCCC2`, the TGI came to 33.2 µM.
`CCOP(=O)(OCC)/C(C#N)=C/c1cnc(-c2ccccc2)[nH]1`: the TGI was above 100 µM.
As to `CC(=O)OCC1OC(OC(C)(C)CC/C=C(\C)[C@@H]2C/C=C(\C)CC/C=C(\C)CC2)C(O)C(O)C1OC(C)=O` (stereo partly specified), the TGI is > 83.7 µM and 34.6 µM.
The same measure, in the same setting: as for `O=C(CN1c2ccccc2Sc2ccccc21)N1CCNCC1`, the figure is above 100 µM; as for `CN(C)CCCOC(=O)C(c1ccccc1)C1(O)CCSCC1` (stereo unspecified), above 100 µM.
In turn, `OCC1CCCCCCCCCCC12SCCCS2` (stereo unspecified) had a TGI above 100 µM.
The molecule `COCOC1/C=C/CCCCC2=C(C)C=C(C1)O2` (stereo unspecified) gave a TGI above 100 µM.
As to `C=C(C)C12CC(COC(=O)c3ccccc3)C34OC5(OC1C3C1OC1(CO)C(O)C1(O)C(OC(=O)c3ccccc3)C(C)C(C(C)CCCCCCC5O)C14)O2` (stereo unspecified), the TGI was above 100 µM.
